Results as given in ChEMBL document CHEMBL1201862, “PubChem BioAssay data set” (2004).
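The compound was tested at five concentrations on cells cultured in 96-well plates, with a 48-hour exposure period. At the GI50, growth is halved.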 Calls of active or inactive are those of the source. No stated cut-off is given here; in the data, active = GI50 up to about 1.1 µM and inactive = higher.

Tests used:
Assay in all cases: NCI-60 cell line screen, 48 h
[1] = system: NCI-H23
[2] = system: NCI/ADR-RES
[3] = system: RPMI-8226
[4] = system: SK-MEL-28
[5] = system: K562
[6] = system: CAKI-1
[7] = system: M14
[8] = system: UACC-257
[9] = system: SK-MEL-5
[10] = system: NCI-H522
[11] = system: NCI-H226
[12] = system: DU-145
[13] = system: OVCAR-5
[14] = system: U-251
[15] = system: A498
[16] = system: UACC-62
[17] = system: HCT-116
[18] = system: Hs-578T
[19] = system: OVCAR-3
[20] = system: SW-620
[21] = system: OVCAR-8
[22] = system: SK-MEL-2
[23] = system: EKVX
[24] = system: IGROV-1
[25] = system: SN12C
[26] = system: OVCAR-4
[27] = system: BT-549
[28] = system: T47D
[29] = system: MDA-MB-231
[30] = system: Malme-3M
[31] = system: SF-268
[32] = system: TK-10
[33] = system: KM12
[34] = system: SK-OV-3
[35] = system: HOP-62
[36] = system: RXF 393
[37] = system: PC-3
[38] = system: COLO 205
[39] = system: LOX IMVI
[40] = system: MOLT-4
[41] = system: 786-0
[42] = system: SF-295
[43] = system: MDA-N
[44] = system: HT-29
[45] = system: SNB-19
[46] = system: MDA-MB-435
[47] = system: CCRF-CEM
[48] = system: ACHN
[49] = system: HCT-15
[50] = system: A549
[51] = system: UO-31
[52] = system: SNB-75
[53] = system: HOP-92
[54] = system: HCC 2998
[55] = system: MCF7
[56] = system: HL-60
[57] = system: SF-539
[58] = system: SR
[59] = system: NCI-H460

CCOC(=O)[C@@H]1[C@@H](c2ccccc2)N(C)O[C@@]1(c1ccccc1)C(F)(F)F
GI50 [1]: 59.6 µM (inactive) | GI50 [2]: > 100 µM (inactive) | GI50 [3]: 20.7 µM (inactive) | GI50 [4]: 85.9 µM (inactive) | GI50 [5]: > 10 µM (inactive) | GI50 [6]: > 100 µM (inactive) | GI50 [7]: 31 µM (inactive) | GI50 [8]: 55 µM (inactive) | GI50 [9]: 27 µM (inactive) | GI50 [10]: 39.9 µM (inactive) | GI50 [11]: 23.1 µM (inactive) | GI50 [12]: > 100 µM (inactive) | GI50 [13]: > 100 µM (inactive) | GI50 [14]: 50.4 µM (inactive) | GI50 [15]: > 100 µM (inactive) | GI50 [16]: 43.5 µM (inactive) | GI50 [17]: 36.5 µM (inactive) | GI50 [18]: > 100 µM (inactive) | GI50 [19]: 97.1 µM (inactive) | GI50 [20]: 43.7 µM (inactive) | GI50 [21]: > 100 µM (inactive) | GI50 [22]: 25.5 µM (inactive) | GI50 [23]: 86.3 µM (inactive) | GI50 [24]: > 100 µM (inactive) | GI50 [25]: > 100 µM (inactive) | GI50 [26]: 77.3 µM (inactive) | GI50 [27]: > 100 µM (inactive) | GI50 [28]: 67.9 µM (inactive) | GI50 [29]: > 100 µM (inactive) | GI50 [30]: 44.2 µM (inactive) | GI50 [31]: > 100 µM (inactive) | GI50 [32]: > 100 µM (inactive) | GI50 [33]: 58.9 µM (inactive) | GI50 [34]: 43.7 µM (inactive) | GI50 [35]: > 100 µM (inactive) | GI50 [36]: 40.2 µM (inactive) | GI50 [37]: 58.5 µM (inactive) | GI50 [38]: > 100 µM (inactive) | GI50 [39]: 70.5 µM (inactive) | GI50 [40]: > 10 µM (inactive) | GI50 [41]: > 100 µM (inactive) | GI50 [42]: 64.6 µM (inactive) | GI50 [43]: 52.8 µM (inactive) | GI50 [44]: 18.7 µM (inactive) | GI50 [45]: > 100 µM (inactive) | GI50 [46]: 28.4 µM (inactive) | GI50 [47]: 20.1 µM (inactive) | GI50 [48]: 44.8 µM (inactive) | GI50 [49]: 40.1 µM | GI50 [50]: 47.3 µM (inactive) | GI50 [51]: > 100 µM (inactive) | GI50 [52]: > 100 µM (inactive) | GI50 [53]: > 100 µM (inactive)

CC(=O)OC(C)(C)[C@H]1O[C@]23O[C@]1(C)C[C@@H](C)[C@@H]2[C@@]1(C)CC[C@@]24C[C@@]25CC[C@H](O[C@@H]2OC[C@@H](O)[C@H](O)[C@H]2O)C(C)(C)[C@@H]5CC[C@H]4[C@]1(C)[C@H]3O
GI50 [1]: 4.84 µM (inactive) | GI50 [2]: 7.73 µM (inactive) | GI50 [3]: 7.69 µM (inactive) | GI50 [54]: 9.93 µM (inactive) | GI50 [4]: 7.08 µM (inactive) | GI50 [5]: 4.5 µM (inactive) | GI50 [6]: 5.47 µM (inactive) | GI50 [7]: 8.59 µM (inactive) | GI50 [8]: 18.8 µM (inactive) | GI50 [9]: 10.3 µM (inactive) | GI50 [10]: 7.28 µM (inactive) | GI50 [11]: 8.59 µM (inactive) | GI50 [12]: 4.34 µM (inactive) | GI50 [13]: 11.8 µM (inactive) | GI50 [14]: 6.41 µM (inactive) | GI50 [15]: 6.44 µM (inactive) | GI50 [16]: 14.6 µM (inactive) | GI50 [17]: 6.67 µM (inactive) | GI50 [18]: 17.4 µM (inactive) | GI50 [19]: 3.59 µM (inactive) | GI50 [55]: 5.38 µM (inactive) | GI50 [20]: 4.34 µM (inactive) | GI50 [56]: 2.03 µM (inactive) | GI50 [21]: 10.8 µM (inactive) | GI50 [22]: 18.1 µM (inactive) | GI50 [23]: 4.06 µM (inactive) | GI50 [57]: 4.35 µM (inactive) | GI50 [58]: 3.18 µM (inactive) | GI50 [24]: 7.08 µM (inactive) | GI50 [25]: 4.41 µM (inactive) | GI50 [26]: 3.95 µM (inactive) | GI50 [27]: 16.3 µM (inactive) | GI50 [28]: 17.6 µM (inactive) | GI50 [59]: 7.4 µM (inactive) | GI50 [29]: 4.61 µM (inactive) | GI50 [30]: 22.8 µM (inactive) | GI50 [31]: 14 µM (inactive) | GI50 [32]: 10 µM (inactive) | GI50 [33]: 3.35 µM (inactive) | GI50 [34]: 12.3 µM (inactive) | GI50 [35]: 11.9 µM (inactive) | GI50 [36]: 3.36 µM (inactive) | GI50 [37]: 4.65 µM (inactive) | GI50 [38]: 9.12 µM (inactive) | GI50 [39]: 3.27 µM (inactive) | GI50 [40]: 5.32 µM (inactive) | GI50 [41]: 6.38 µM (inactive) | GI50 [42]: 8 µM (inactive) | GI50 [44]: 8.38 µM (inactive) | GI50 [45]: 6.27 µM (inactive) | GI50 [46]: 8.73 µM (inactive) | GI50 [47]: 5.94 µM (inactive) | GI50 [48]: 6.07 µM (inactive) | GI50 [49]: 3.41 µM | GI50 [50]: 6.41 µM (inactive) | GI50 [51]: 14.6 µM (inactive) | GI50 [52]: 17.1 µM (inactive) | GI50 [53]: 9.02 µM (inactive)

Cc1ccc(/C=N/n2c(Cc3ccccc3)n[nH]c2=O)cc1
GI50 [1]: > 100 µM (inactive) | GI50 [2]: > 100 µM (inactive) | GI50 [3]: > 100 µM (inactive) | GI50 [54]: > 100 µM (inactive) | GI50 [4]: > 100 µM (inactive) | GI50 [5]: > 100 µM (inactive) | GI50 [6]: 28.6 µM (inactive) | GI50 [7]: > 100 µM (inactive) | GI50 [8]: > 100 µM (inactive) | GI50 [9]: > 100 µM (inactive) | GI50 [10]: > 100 µM (inactive) | GI50 [11]: > 100 µM (inactive) | GI50 [12]: > 100 µM (inactive) | GI50 [13]: > 100 µM (inactive) | GI50 [15]: > 100 µM (inactive) | GI50 [17]: > 100 µM (inactive) | GI50 [18]: 65.2 µM (inactive) | GI50 [19]: > 100 µM (inactive) | GI50 [20]: > 100 µM (inactive) | GI50 [56]: > 100 µM (inactive) | GI50 [21]: > 100 µM (inactive) | GI50 [23]: > 100 µM (inactive) | GI50 [57]: > 100 µM (inactive) | GI50 [58]: > 100 µM (inactive) | GI50 [24]: > 100 µM (inactive) | GI50 [25]: > 100 µM (inactive) | GI50 [26]: > 100 µM (inactive) | GI50 [27]: 19.8 µM (inactive) | GI50 [28]: > 100 µM (inactive) | GI50 [59]: > 100 µM (inactive) | GI50 [29]: > 100 µM (inactive) | GI50 [30]: > 100 µM (inactive) | GI50 [31]: > 100 µM (inactive) | GI50 [32]: > 100 µM (inactive) | GI50 [33]: > 100 µM (inactive) | GI50 [35]: 37.2 µM (inactive) | GI50 [36]: > 100 µM (inactive) | GI50 [37]: > 100 µM (inactive) | GI50 [38]: > 100 µM (inactive) | GI50 [39]: > 100 µM (inactive) | GI50 [40]: > 100 µM (inactive) | GI50 [41]: 80.9 µM (inactive) | GI50 [42]: 35.9 µM (inactive) | GI50 [43]: > 100 µM (inactive) | GI50 [44]: > 100 µM (inactive) | GI50 [45]: > 100 µM (inactive) | GI50 [47]: > 100 µM (inactive) | GI50 [48]: > 100 µM (inactive) | GI50 [49]: > 100 µM | GI50 [50]: > 100 µM (inactive) | GI50 [51]: > 100 µM (inactive) | GI50 [52]: 40.2 µM (inactive) | GI50 [53]: 37 µM (inactive)
